The results in this text go back to patent US11447742B2, “Compositions and methods for activation and overexpression of secondary metabolites in microorganisms” (Prospective Research, Inc., priority 2016, dated 2022).

Test [1] concerns S. coelicolor. In words: Induction of pigmented antibiotic (actinorhodin) production in S. coelicolor plate cultures spotted with GBLs. The conditions noted are these: for antibiotic production (dark spot): S. coelicolor SMMS plates spotted with 1-100 μg racemic mixture of I-VII and VB-D at inoculation, observed after 42 hours; for dose dependence of antibiotic production (diameter of dark spot): amount of GBL mixture I-VII and VB-D 1-100 μg; for production of pigmented antibiotics (actinorhodin): S. coelicolor on SMMS plates, 2 μL spot with 16.5-165 μg racemic GBLs X and XI at inoculation, versus control plates without GBL. Format: cell-based, Streptomyces coelicolor. The protocol:
The formulas I-VII in FIG. 10 illustrate the structures of the enantiomers in the mixture of GBLs tested for ability to elicit antibiotic production, the results of which are shown in the plates in FIG. 9. […] The mixture of GBLs was added to a pure culture of non-cognate microorganism S. coelicolor. Streptomycete strains were cultured in complex medium R5 or in minimal medium MMS. See Kieser, T. et al., Practical Streptomyces Genetics, John Innes Institute, 2000.
Spore stock of S. coelicolor was used to inoculate SMMS agar (solid SMM medium) and the spore suspension on the surfaces of the plates was allowed to dry. The GBL amounts were added at the time of inoculation.
The two plates in the top of the photograph of FIG. 9 are controls cultures of S. coelicolor. The control plate on the left is a negative control in which no GBL nor vehicle was added. The control plate on the right was contacted with the vehicle only, which was a mixture of methanol and water.
A racemic mixture of GBLs containing the non-naturally occurring compounds 1-VII and virginiae butenolide-D (VB-D) was synthesized, and an amount of about 500 μg was dissolved in 100 μL of vehicle to yield a 5 mg/ml concentration solution. The plates of the second row from left to right were spotted with 20 μL (100 μg), 10 μL (50 μg), 5 μL (25 μg), and […] of the 10 mg/ml concentration solution, respectively. […] The fifth plate of the third row was spotted with 2 μL (1 μg) of a 1:10 dilution of the 10 mg/ml concentration solution.
FIG. 12 is a photograph of SMMS (supplemented minimal media solid) plates inoculated with a spore stock of S. coelicolor streaked to cover the surface of the medium in the plate. At the time of inoculation, 2 μL of a racemic solution containing each amount of a dilution of the racemic GBLs having formulas X and XI were deposited in the center of a plate. Plate 1a was spotted with 2 μL of a solution containing 16.5 μg of GBLs X and XI. Plates 2a and 2b were spotted with 2 μL of a solution containing 33 μg of GBLs X and XI. Plate 3a was spotted with a solution containing 49.5 μg of GBLs X and XI. Plates 4a and 4b were spotted with a solution containing 66 μg of GBLs X and XI. Plates 5a, 6a, 7a, were spotted with solutions containing 99 μg, 132 μg, and 165 μg of GBLs X and XI, respectively. Racemic mixture GBLs were present in equal molar amounts. […] No pigment production was observed on the control plates shown in FIG. 7 not contacted with GBLs.

For a further test, the system named is S. glaucescens. In words: Principal component analysis of secondary metabolites of S. glaucescens small scale fermentations with GBLs. The format is cell-based. As to conditions: for induction of secondary metabolite production: S. glaucescens fermented in SMM medium, LC-MS data, versus untreated control (FIG. 17). As to the method:
S. glaucescens cells were grown in 3 mL cultures under 96 different conditions of medium, GBL choice, and GBL concentration. Each GBL solution was added to a tube in each of the following concentrations: 0.2 μM, 0.8 μM, 4 μM, 20 μM, and 100 μM. Media were a minimal medium SMM or a yeast enriched complex medium R5 (also called R2YE). The GBL indicated in FIG. 17 as PR001 and PR002 are shown in FIG. 16, and have the chemical formulae, respectively: 3-(1-hydroxyethyl)-4-(hydroxymethyl)dihydrofuran-2(3H)-one; and, 3-(1-hydroxyheptyl)-4-(hydroxymethyl)dihydrofuran-2(3H)-one.
Fermentations were incubated in 24-well blocks (CR 424, Enzyscreen B.V., Netherlands) with lids (1221a), and were shaken at 200 rpm for 5 days at 28° C. in an Infors HT incubator (Infors AG, Switzerland). For analysis, a C18 SPE-IT tip (57234-U from Sigma-Aldrich) was added to each fermentation which were further shaken at 400 rpm for one hour. Tips were removed and rinsed in deionized water, and were analyzed directly or stored for analysis. Analysis was collected at ionsense, Inc. (Saugus, Mass.) vaporized with a DART source at 400 C and 1 mm/s, and mass spectral data collected in a Thermo LTQ. Analysis used Progenesis QI from Nonlinear Dynamics (Waters).
Principal component analysis data of secondary metabolites induced by the GBLs in comparison to control absent GBL are shown in FIG. 17. […] Accordingly, 100 μM GBL was used in large scale fermentions.

Test [2] concerns S. coelicolor. In words: Large scale S. coelicolor fermentation with GBL, extract fractionation and LC-MS identification of induced secondary metabolites. Format: cell-based, Streptomyces coelicolor. The conditions noted are these: S. coelicolor 300 mL cultures in SMM, 100 μM GBL; for Desferrioxamine B production / Desferrioxamine E production / streptorubin B production / undecylprodigiosin production: 5 days; for Desferrioxamine B production: fraction 28, peak at 1.81, versus untreated control; for Desferrioxamine E production: fraction 28, peak at 2.09, versus untreated control; for streptorubin B production: fraction 41, peak at 3.6, versus untreated control; for undecylprodigiosin production: fraction 41, peak at 3.8, versus untreated control. As to the method:
Yields of both known and unknown bioactive compounds regulated by the presence of signaling hormones are improved by contacting producing cells with an appropriate GBL. Secondary metabolites were isolated from cultures of cells. Triplicate 300 mL cultures of S. coelicolor in SMM, was treated with the synthetic racemic mixture of VB-D and seven enantiomers of the non-cognate GBL shown in FIG. 10, at a total concentration of 100 μM, and an identical culture was grown without GBL. Cells were grown for five days at 29 C shaking at 220 rpm. Triplicates were pooled with GBL-treated and control cultures pooled separately.
A slurry of absorbent resins HP-20, XAD-16, XAD-7 and XAD-4 was added (2-4% weight/volume) and shaking was continued overnight. The resin and cell mass were removed by filtration and were washed three times with 200 mL deionized water. Resin and cell mass were extracted three times with 100-300 mL methanol to elute secondary metabolites from the resin. This extract was concentrated by rotary evaporation to remove extraction solvent.
The crude extract was dissolved in 1-3 mL of dimethylsulfoxide (DMSO) and was injected into a reveleris C18 reverse phase column on a Gilson High-Pressure Liquid Chromatography system. A flow rate of 15 ml/min was run for 40 minutes using mobile phases of methanol with 0.1% formic acid, and water with 0.1% formic acid. Forty-eight fractions were collected from a twenty minutes gradient of solvent from 15% methanol to 95% methanol, and were analyzed for antibacterial content on soft agar lawns of each of a Gram negative indicator strain, Escherichia coli, and a Gram positive indicator strain, Bacillus subtilis.
Further, 10 μL fraction volumes of each fraction were injected into a Waters Xevo G2-S Q-TOF LCMS system for further analytical separation and mass identification.
Fraction 28 of each of the GBL and the control extracts were each analyzed by LC-MS-TOF.
Fraction 41 of each of the GBL and the control extracts were each analyzed by LC-MS-TOF. […] Fraction 41 was subjected to UV chromatogram of diode array HPLC detector analysis. Again at prominent peak at 3.83 was observed. This material was determined to be undecylprodigiosin by mass chromatogram shown in FIG. 25, which has an observed mass of 393.27 and a calculated mass of 394.25.

Setting [3] is: listed as synthetic non-cognate GBL.

The structures appear in SMILES notation. Entries after “also recorded” stand apart in the source; their conditions may differ.

Turning to `CCCCCCC(O)C1C(=O)OCC1CO` (single isomer, unassigned) [3-(1-hydroxyheptyl)-4-(hydroxymethyl)dihydrofuran-2(3H)-one], the “antibiotic production (dark spot)” value in the test on S. coelicolor [1] (listed as VB-D and seven enantiomer GBLs thereof having the formulas I-VII) was “production of the blue antibiotic, actinorhodin, and red prodiginies”; in the test on S. coelicolor [1] (listed as compounds 1-VII and virginiae butenolide-D (VB-D)), “produced antibiotic”; in the test on S. coelicolor [1] (listed as mixture of GBLs), “production of an antibacterial activity was elicited”. Also, the antibiotic production entry with S. coelicolor [1] (S. coelicolor SMMS plates with racemic mixture of I-VII and VB-D, after 24 hours) is “No antibiotic production was observed”. For the same molecule, the “dose dependence of antibiotic production (diameter of dark spot)” value is “monotonic dose-dependent response” in the test on S. coelicolor [1] (S. coelicolor plates, listed as VB-D and seven enantiomer GBLs thereof having the formulas I-VII); “dose-dependent monotonically” in the test with S. coelicolor [1] (S. coelicolor plates, listed as compounds 1-VII and virginiae butenolide-D (VB-D)). Moreover, the “induction of secondary metabolite production” value in the test on S. glaucescens is reported as “induction of secondary metabolite production”. In addition, the “Desferrioxamine B production” value is “induced” in the test with S. coelicolor [2] and “substantially enhanced or even induced” with S. coelicolor [2] (setting [3]). The “Desferrioxamine E production” value in the test on S. coelicolor [2] is reported as “induced”; with S. coelicolor [2] (setting [3]), “substantially enhanced or even induced”. The “streptorubin B production” value is “induced” in the test on S. coelicolor [2] and “substantially enhanced or even induced” in the test on S. coelicolor [2] (setting [3]). Also, the undecylprodigiosin production entry in the test with S. coelicolor [2] is “induced”; with S. coelicolor [2] (setting [3]) it was “substantially enhanced or even induced”. Besides, the “production of unknown compound (peak at 1.84)” value in the test with S. coelicolor [2] (fraction 28, versus untreated control) is “induced”.
As to `CC(O)C1C(=O)OCC1CO` (stereo not drawn) [3-(1-hydroxyethyl)-4-(hydroxymethyl)dihydrofuran-2(3H)-one], the “distinction from control secondary metabolites produced absent GBL (principal component analysis)” value in the test on S. glaucescens (S. glaucescens 3 mL cultures, 5 days, 0.2-100 μM GBL) is “greatest distinction from control”. Moreover, in the test with S. glaucescens, the “induction of secondary metabolite production” value is given as “induction of secondary metabolite production”. Besides, the “dose dependence of induction of secondary metabolites” value in the test with S. glaucescens (S. glaucescens, GBL 0.2, 0.8, 4, 20, 100 μM) was “in a dose-dependent manner”. Further, the “concentration of maximal distinction from control” value with S. glaucescens (S. glaucescens, principal component analysis) was determined as 100 µM.
Consider `CCCCCCC(=O)C1C(=O)OCC1CO` (stereo not drawn) [GBLs X and XI], for which the “time of induction of production of the pigmented antibiotics” value in the test on S. coelicolor [1] (S. coelicolor SMMS plates contacted with racemic GBLs X and XI) is “early induction”. Further, the “production of pigmented antibiotics (actinorhodin)” value is listed as “pigmented antibiotic is produced only in response to treatment; also recorded: increased production of pigmented antibiotics” in the test on S. coelicolor [1]; “production of the purple antibiotic, actinorhodin” in the test with S. coelicolor [1] (listed as X and XI). Further, in the test with S. coelicolor [1] (S. coelicolor plates, increasing amount of GBLs X and XI (FIG. 3)), the “dose dependence of antibiotic production” value is given as “dose-dependent increase in antibiotic production”.
